Results: ChEMBL document CHEMBL4396940, “Synthesis and biological evaluation of 4-(piperid-3-yl)amino substituted 6-pyridylquinazolines as potent PI3Kδ inhibitors” (Bioorg Med Chem, 2019)
Each block holds one compound with its values, some of them ahead of it.

Columns and labels:
[1] = tested on: SU-DHL-6; test: Antiproliferative activity against human SUDHL6 cells by MTT assay; assay type: functional, cell-based
[2] = molecular target: T1, Phosphatidylinositol 4,5-bisphosphate 3-kinase catalytic subunit delta isoform (Homo sapiens, UniProt O00329); test: Inhibition of PI3K delta (unknown origin) using phosphatidyl inositol as substrate measured after 60 mins in presence of ATP by Kinase-Glo Plus reagent-based luminescence assay
T1 sequence (O00329 whole entry): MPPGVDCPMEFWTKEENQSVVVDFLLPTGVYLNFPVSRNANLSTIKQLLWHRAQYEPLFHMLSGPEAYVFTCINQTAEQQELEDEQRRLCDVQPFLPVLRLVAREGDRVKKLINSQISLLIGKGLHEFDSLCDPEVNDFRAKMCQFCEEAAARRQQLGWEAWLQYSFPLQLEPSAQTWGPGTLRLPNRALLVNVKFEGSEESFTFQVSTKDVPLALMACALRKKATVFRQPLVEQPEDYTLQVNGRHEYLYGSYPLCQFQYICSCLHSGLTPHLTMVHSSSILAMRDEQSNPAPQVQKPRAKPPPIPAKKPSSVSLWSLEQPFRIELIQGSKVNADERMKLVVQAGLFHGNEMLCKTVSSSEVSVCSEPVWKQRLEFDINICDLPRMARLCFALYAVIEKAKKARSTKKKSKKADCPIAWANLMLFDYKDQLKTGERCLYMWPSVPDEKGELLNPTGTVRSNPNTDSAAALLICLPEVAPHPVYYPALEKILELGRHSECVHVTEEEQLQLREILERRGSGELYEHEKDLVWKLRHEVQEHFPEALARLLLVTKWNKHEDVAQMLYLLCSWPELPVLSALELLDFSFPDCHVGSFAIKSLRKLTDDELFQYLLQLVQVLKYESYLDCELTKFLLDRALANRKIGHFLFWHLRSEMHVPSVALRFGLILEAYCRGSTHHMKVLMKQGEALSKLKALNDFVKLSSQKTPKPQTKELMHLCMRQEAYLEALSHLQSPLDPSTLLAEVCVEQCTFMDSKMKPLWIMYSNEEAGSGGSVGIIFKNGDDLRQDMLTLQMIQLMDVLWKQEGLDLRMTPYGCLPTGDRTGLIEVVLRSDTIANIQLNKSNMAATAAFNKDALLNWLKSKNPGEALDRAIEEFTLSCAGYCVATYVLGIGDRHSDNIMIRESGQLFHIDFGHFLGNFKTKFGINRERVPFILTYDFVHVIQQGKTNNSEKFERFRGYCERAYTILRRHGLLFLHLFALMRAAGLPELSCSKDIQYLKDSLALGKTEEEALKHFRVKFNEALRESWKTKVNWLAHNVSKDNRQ

[3] = tested on: Ramos; test: Antiproliferative activity against human Ramos cells by MTT assay; assay type: functional, cell-based
[4] = tested on: HCT-116; test: cells; conditions: Homo sapiens
Description: Antiproliferative activity against human HCT116 cells by MTT assay

[5] = molecular target: Phosphatidylinositol 4,5-bisphosphate 3-kinase catalytic subunit gamma isoform (Homo sapiens, UniProt P48736); test: Inhibition of PI3K gamma (unknown origin) using phosphatidyl inositol as substrate measured after 60 mins in presence of ATP by Kinase-Glo Plus reagent-based luminescence assay
Phosphatidylinositol 4,5-bisphosphate 3-kinase catalytic subunit gamma isoform, sequence (P48736 whole entry, canonical isoform): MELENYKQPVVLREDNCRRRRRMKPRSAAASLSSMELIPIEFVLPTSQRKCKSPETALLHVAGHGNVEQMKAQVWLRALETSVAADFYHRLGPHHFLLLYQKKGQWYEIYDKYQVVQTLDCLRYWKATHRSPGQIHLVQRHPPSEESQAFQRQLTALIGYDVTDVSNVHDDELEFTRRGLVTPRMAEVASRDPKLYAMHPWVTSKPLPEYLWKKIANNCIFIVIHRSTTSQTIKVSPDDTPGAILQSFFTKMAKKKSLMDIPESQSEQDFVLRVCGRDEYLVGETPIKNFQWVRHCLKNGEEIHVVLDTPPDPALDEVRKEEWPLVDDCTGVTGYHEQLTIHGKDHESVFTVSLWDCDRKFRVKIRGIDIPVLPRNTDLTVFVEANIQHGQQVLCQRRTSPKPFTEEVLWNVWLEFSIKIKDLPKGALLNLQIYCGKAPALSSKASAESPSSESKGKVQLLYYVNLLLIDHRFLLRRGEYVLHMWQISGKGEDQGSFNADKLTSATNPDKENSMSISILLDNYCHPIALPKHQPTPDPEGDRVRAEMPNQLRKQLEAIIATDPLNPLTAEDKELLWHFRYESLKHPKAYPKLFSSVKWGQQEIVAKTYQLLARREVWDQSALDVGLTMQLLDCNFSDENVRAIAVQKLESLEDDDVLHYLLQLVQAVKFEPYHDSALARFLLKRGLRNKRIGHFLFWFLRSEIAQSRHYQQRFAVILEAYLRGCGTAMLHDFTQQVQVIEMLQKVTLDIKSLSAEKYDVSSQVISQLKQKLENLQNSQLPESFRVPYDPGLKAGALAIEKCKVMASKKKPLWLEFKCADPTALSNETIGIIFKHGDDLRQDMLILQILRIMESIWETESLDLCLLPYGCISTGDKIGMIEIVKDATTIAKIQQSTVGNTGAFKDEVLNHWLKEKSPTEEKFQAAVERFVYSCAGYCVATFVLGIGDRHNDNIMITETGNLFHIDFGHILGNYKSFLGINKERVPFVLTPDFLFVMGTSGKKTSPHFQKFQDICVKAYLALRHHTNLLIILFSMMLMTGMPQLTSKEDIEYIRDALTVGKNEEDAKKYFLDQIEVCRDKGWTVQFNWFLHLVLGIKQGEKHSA

[6] = molecular target: Phosphatidylinositol 4,5-bisphosphate 3-kinase catalytic subunit beta isoform (Homo sapiens, UniProt P42338); test: Inhibition of PI3K beta (unknown origin) using phosphatidyl inositol as substrate measured after 60 mins in presence of ATP by Kinase-Glo Plus reagent-based luminescence assay
Phosphatidylinositol 4,5-bisphosphate 3-kinase catalytic subunit beta isoform, sequence (P42338 whole entry, canonical isoform): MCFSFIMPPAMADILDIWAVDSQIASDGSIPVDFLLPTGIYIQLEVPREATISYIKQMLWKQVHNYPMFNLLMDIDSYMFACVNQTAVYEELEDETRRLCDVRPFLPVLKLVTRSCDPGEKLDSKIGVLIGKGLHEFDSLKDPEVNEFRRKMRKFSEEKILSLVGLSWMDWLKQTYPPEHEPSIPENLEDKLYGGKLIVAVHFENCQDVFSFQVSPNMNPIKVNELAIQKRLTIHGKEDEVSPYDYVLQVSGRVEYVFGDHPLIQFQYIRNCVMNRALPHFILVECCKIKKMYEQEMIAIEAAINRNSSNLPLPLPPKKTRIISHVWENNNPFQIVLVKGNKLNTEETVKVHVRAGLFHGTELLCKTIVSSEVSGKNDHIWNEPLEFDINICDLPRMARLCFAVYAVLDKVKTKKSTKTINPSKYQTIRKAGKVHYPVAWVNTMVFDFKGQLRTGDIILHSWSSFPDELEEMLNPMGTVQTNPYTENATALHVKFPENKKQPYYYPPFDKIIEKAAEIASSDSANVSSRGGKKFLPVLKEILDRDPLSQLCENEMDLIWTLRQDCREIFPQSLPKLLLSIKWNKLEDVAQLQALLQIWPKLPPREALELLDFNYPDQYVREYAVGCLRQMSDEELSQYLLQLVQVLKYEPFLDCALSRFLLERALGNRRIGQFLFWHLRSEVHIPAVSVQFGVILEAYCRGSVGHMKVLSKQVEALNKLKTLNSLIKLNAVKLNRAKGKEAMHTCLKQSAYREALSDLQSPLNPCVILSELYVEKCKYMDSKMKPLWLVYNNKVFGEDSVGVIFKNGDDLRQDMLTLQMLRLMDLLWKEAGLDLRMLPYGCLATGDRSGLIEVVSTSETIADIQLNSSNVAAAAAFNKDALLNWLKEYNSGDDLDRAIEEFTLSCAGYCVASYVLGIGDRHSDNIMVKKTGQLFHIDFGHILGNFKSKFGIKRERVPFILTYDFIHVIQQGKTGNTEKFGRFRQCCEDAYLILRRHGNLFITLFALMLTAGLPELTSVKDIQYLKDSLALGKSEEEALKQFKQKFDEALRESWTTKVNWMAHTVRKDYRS

[7] = tested on: MCF7; test: cells; conditions: Homo sapiens
Description: Antiproliferative activity against human MCF7 cells by MTT assay

[8] = molecular target: T2, Phosphatidylinositol 4,5-bisphosphate 3-kinase catalytic subunit delta isoform (Homo sapiens) (UniProt O00329); test: Inhibition of PI3K delta in human SUDHL6 cells assessed as reduction in AKT phosphorylation at S473 measured after 8 hrs by Western blot analysis; assay type: cell-based
T2 sequence (whole entry): T1 sequence (O00329 whole entry)

[9] = molecular target: Phosphatidylinositol 4,5-bisphosphate 3-kinase catalytic subunit alpha isoform (Homo sapiens, UniProt P42336); test: Inhibition of PI3K alpha (unknown origin) using phosphatidyl inositol as substrate measured after 60 mins in presence of ATP by Kinase-Glo Plus reagent-based luminescence assay
Phosphatidylinositol 4,5-bisphosphate 3-kinase catalytic subunit alpha isoform, sequence (P42336 whole entry, canonical isoform): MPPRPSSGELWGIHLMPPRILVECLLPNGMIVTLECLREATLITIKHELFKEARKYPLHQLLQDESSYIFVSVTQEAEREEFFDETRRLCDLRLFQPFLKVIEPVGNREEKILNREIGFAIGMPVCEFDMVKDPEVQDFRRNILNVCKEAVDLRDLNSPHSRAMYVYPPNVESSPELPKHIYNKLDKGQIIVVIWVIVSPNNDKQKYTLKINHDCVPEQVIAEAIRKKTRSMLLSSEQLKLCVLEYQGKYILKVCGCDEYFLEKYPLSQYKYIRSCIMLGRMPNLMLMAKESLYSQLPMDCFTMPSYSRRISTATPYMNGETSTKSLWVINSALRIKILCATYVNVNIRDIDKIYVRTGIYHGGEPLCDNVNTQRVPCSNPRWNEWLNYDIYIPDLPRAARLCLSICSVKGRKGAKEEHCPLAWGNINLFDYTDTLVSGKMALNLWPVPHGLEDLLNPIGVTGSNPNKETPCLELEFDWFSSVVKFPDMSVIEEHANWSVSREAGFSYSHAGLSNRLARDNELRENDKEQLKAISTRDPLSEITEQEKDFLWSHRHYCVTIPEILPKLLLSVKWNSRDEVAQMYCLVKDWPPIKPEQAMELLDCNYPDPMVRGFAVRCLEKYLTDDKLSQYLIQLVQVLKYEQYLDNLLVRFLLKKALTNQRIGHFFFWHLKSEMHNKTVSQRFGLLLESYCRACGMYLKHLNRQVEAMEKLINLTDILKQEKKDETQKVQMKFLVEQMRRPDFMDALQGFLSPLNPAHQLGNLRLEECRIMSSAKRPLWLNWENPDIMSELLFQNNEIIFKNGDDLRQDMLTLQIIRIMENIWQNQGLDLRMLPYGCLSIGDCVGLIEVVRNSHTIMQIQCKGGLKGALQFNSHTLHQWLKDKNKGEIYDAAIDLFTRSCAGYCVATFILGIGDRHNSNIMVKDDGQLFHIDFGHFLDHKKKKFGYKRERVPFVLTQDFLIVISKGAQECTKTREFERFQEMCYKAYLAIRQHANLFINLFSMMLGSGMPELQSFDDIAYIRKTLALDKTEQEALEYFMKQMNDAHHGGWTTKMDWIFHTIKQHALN

[10] = tested on: Raji; test: Antiproliferative activity against human Raji cells by MTT assay; assay type: functional, cell-based
[11] = molecular target: T1, Phosphatidylinositol 4,5-bisphosphate 3-kinase catalytic subunit delta isoform; test: Inhibition of PI3K delta (unknown origin)

SMILES: COc1ncc(-c2ccc3ncnc(N[C@H]4CCCN(C(=O)CCl)C4)c3c2)cc1C#N
IC50 [1]: 380 nM
IC50 [2]: 8.9 nM

SMILES: COc1ncc(-c2ccc3ncnc(N[C@H]4CCCN(C(=O)c5cccnc5)C4)c3c2)cc1C#N
IC50 [3]: > 10000 nM
IC50 [1]: 120 nM
IC50 [4]: > 10000 nM
IC50 [5]: 2 nM
IC50 [6]: 9.1 nM
IC50 [2]: 0.7 nM
IC50 [7]: > 10000 nM
inhibition [8]: Dose-dependent effect
IC50 [9]: 120 nM
IC50 [10]: > 10000 nM

SMILES: COc1ncc(-c2ccc3ncnc(N[C@H]4CCCN(C(=O)CCBr)C4)c3c2)cc1C#N
IC50 [1]: 15 nM
IC50 [2]: 14.3 nM

SMILES: COc1ncc(-c2ccc3ncnc(N[C@H]4CCCN(CCO)C4)c3c2)cc1C#N
IC50 [1]: 2050 nM
IC50 [2]: 4.7 nM

SMILES: Cn1c(=O)n(-c2ccc(C(C)(C)C#N)cc2)c2c3cc(-c4cnc5ccccc5c4)ccc3ncc21 [DACTOLISIB]
IC50 [3]: 400 nM
IC50 [4]: 300 nM
IC50 [7]: 200 nM
IC50 [10]: 520 nM

SMILES: COc1ncc(-c2ccc3ncnc(N[C@H]4CCCN(C(=O)CN(C)C)C4)c3c2)cc1C#N
IC50 [3]: > 10000 nM
IC50 [1]: 160 nM
IC50 [4]: > 10000 nM
IC50 [5]: 250 nM
IC50 [6]: 150 nM
IC50 [2]: 1.3 nM
IC50 [7]: > 10000 nM
IC50 [9]: 21.8 nM
IC50 [10]: > 10000 nM

SMILES: CCOC(=O)CN1CCC[C@H](Nc2ncnc3ccc(-c4cnc(OC)c(C(F)(F)F)c4)cc23)C1
IC50 [1]: 230 nM
IC50 [2]: 6.8 nM

Continued, values first:

IC50 [1]: 420 nM
IC50 [2]: 9.4 nM
SMILES: COc1ncc(-c2ccc3ncnc(N[C@H]4CCCN(C(=O)C5CCN(C)CC5)C4)c3c2)cc1C#N

IC50 [3]: > 10000 nM
IC50 [1]: 440 nM
IC50 [4]: > 10000 nM
IC50 [5]: 211 nM
IC50 [6]: 147 nM
IC50 [2]: 3.7 nM
IC50 [7]: > 10000 nM
IC50 [9]: 18.2 nM
IC50 [10]: > 10000 nM
SMILES: COc1ncc(-c2ccc3ncnc(N[C@H]4CCCN(C(=O)[C@H](C)N)C4)c3c2)cc1C#N

IC50 [1]: 210 nM
IC50 [2]: 3.2 nM
SMILES: COc1ncc(-c2ccc3ncnc(N[C@H]4CCCN(C(=O)C(F)(F)F)C4)c3c2)cc1C#N

IC50 [1]: 127000 nM
IC50 [2]: 27 nM
SMILES: COc1ncc(-c2ccc3ncnc(N[C@H]4CCCN(C(=O)C(F)(F)F)C4)c3c2)cc1[N+](=O)[O-]

IC50 [1]: 150 nM
IC50 [2]: 7.7 nM
SMILES: COc1ncc(-c2ccc3ncnc(N[C@H]4CCCN(C(=O)C5CCOCC5)C4)c3c2)cc1C#N

IC50 [11]: 4.9 nM
SMILES: COc1ncc(-c2ccc3ncnc(O[C@H]4CCN(C(=O)C5CCOCC5)C4)c3c2)cc1C#N

IC50 [1]: 500 nM
IC50 [2]: 3.2 nM
SMILES: CCOC(=O)CN1CCC[C@H](Nc2ncnc3ccc(-c4cnc(OC)c(C#N)c4)cc23)C1

IC50 [1]: 2440 nM
IC50 [2]: 2.5 nM
SMILES: COc1ncc(-c2ccc3ncnc(N[C@H]4CCCN(C(=O)C5CCNCC5)C4)c3c2)cc1C#N

IC50 [3]: > 10000 nM
IC50 [1]: 33 nM
IC50 [4]: > 10000 nM
IC50 [7]: > 10000 nM
IC50 [10]: > 10000 nM
SMILES: CC[C@H](Nc1ncnc2[nH]cnc12)c1nc2cccc(F)c2c(=O)n1-c1ccccc1 [IDELALISIB]
